We go through one molecule from patent publication US20170166870A1, “HUMAN HEPATIC 3D CO-CULTURE MODEL AND USES THEREOF” (Vrije Universiteit Brussel, priority 2014, published 2017).

Like-named read-outs stand apart in the source and are kept apart here.

The subject of one data set is 3D HepaRG mono-culture. Briefly: APAP toxicity assay, cell viability by ATP (Cell titer Glo). Type of data set: cell-based. The following applies: Homo sapiens, 0% DMSO, read-out: APAP EC50 values (±stdev). The method, then: (§1) APAP toxicity assay was performed in 3D HepaRG/co-culture as well as in 3D HepaRG monoculture. For 24 h, starting at day 20, cells were exposed to a range of APAP concentrations between 0.5 and 80 mM, keeping cells with the solvent (0.1% DMSO) as a control. For some experiments the culture medium was supplemented with 2.5 mM valproic acid (VPA sodium salt, Sigma-Aldrich) or with cytokine mixture (Raicevic et al.,2012)-interleukin (IL)-1β 25 ng/mL (Peprotech, Rocky Hill, N.J., USA), interferon (IFN)-γ 10^3 U/mL, tumor necrosis factor (TNF)-a 50 ng/mL, and IFN-α 3·10^3 U/mL (all from Prospec, Inc., East Brunswick, N.J., USA). For the recovery assay, at the end of APAP incubation, cells were washed using HepaRG culture 0% DMSO medium and kept in the same medium for 3 more days.
At the end of the incubation period, 5 spheroids per condition were pooled and lysed for RNA analyses, while the remaining spheroids per condition were lysed individually for viability analysis using the Cell titer Glo kit (Promega) for ATP measurements following the instructions of the manufacturer.
In general terms: In ATP-based viability assays light output follows the ATP content of the culture.

Another data set concerns 3D HSC mono-culture. Description: APAP toxicity on HSC. Type of data set: cell-based, human. As to conditions: APAP 0.5-80 mM, 24 h. The method, then:
as §1, with “days. […]” for “days.”
We investigated the effect of APAP on the different cell types by measurement of the two major energy producing pathways assessing at the mitochondrial functional level. For that purpose, we measured the Oxygen Consumption Rate (OCR) and Glycolisis (through proton production—Extracellular Acidification rate, ECAR) using the XF Cell Mito Stress Test Kit (Seahorse Biosciences) 0, 12 and 24 hours of APAP incubation in the three 3D cultures. […]

In data set [1] the test system is hepatic stellate cells isolated from mice. Description: Acute and chronic APAP liver injury model, HSC activation markers and collagen deposition. Type of data set: in vivo, mouse. From the text: Male balbC and C57BL/6 mice were used for all experiments; animals were housed in a controlled environment with free access to chow and water. The experimental protocol was approved by the institutional Animal Care and Use Committee of Vrije Universiteit Brussel, permit number 14-212-2, and National Institutes of Health principles of laboratory animal care (NIH publication 86-23, revised 1995) were followed. Acute and chronic models for liver fibrosis were used on mice of age 7-8 weeks. Acute injury was induced by a single dose of Acetaminophen (APAP) of 50; 150; 300 or 500 mg APAP/kg weight. Chronic injury was induced by repeated injections of APAP twice per week for 4 weeks. Hepatic stellate cells were collected at the end of the treatment. Isolation of stellate cells was done using FACS, based on UV-positivity. After isolation cells were not cultured, but immediately used for mRNA analysis. […] For quantitative real-time polymerase chain reaction (qPCR), GoTaq QPCR Master Mix with BRYTE green (Promega, Madison, Wis.) was used, subjected to qPCR in a 7500 real time PCR system and analysed using System SDS software v2.0.5 (Applied Biosystems), using GAPDH for normalisation. Reliability of GAPDH as house-keeping gene was determined using Normfinder (Andersen et al., 2004; Cancer Res 64(15): 5245-5250) to produce the ΔCT values. […]

The subject of a further data set is 3D HepaRG/HSC co-culture. Briefly: Single and repeated exposure, gene expression of HSC activation markers. Type of data set: cell-based, human. The following applies: for HSC activation (up-regulation of activation markers, mRNA): serum-free medium. The method, then: Single and repeated exposure. For the single and repeated compound exposure cell spheroids (3D HepaRG/HSC, 3D HepaRG and 3D HSC) were exposed respectively on day 20 for 24 h or every second day from day 8 to day 21 in serum-free medium with no additional solvent. Cells were exposed to a range of 8 concentrations between 0.5 and 80 mM for APAP single-dose, 0.125 and 40 mM for APAP repeated-dose, 0.3 and 500 μM Allyl Alcohol (AA, Sigma-Aldrich), 1.9 and 1000 μM Methotrexate (MTX, Pfizer, NY, USA). For the recovery assay, on day 21, cells were washed using serum-free medium and kept for 3 extra days.
For the cell culture samples, total RNA from 4-6 pooled spheroids was extracted from cells using the RNeasy Micro Kit (Qiagen, Venlo, Limburg, Netherlands). In the mouse assays, sorted HSC from different mice were lysed separately. Total RNA from tissue cultured cells was extracted using ReliaPrep RNA Cell Miniprep System (Promega).
Reverse-transcription using the Revert Aid Kit (ThermoFisher Scientific, Waltham, Massachusetts, USA) allowed conversion of RNA to cDNA. The RT reaction was performed at 25° C. for ten minutes followed by 30 minutes at 50° C. For quantitative real-time polymerase chain reaction (qPCR), GoTaq QPCR Master Mix with BRYTE green (Promega) was used, subjected to qPCR in a 7500 real time PCR system and analysed using System SDS software v2.0.5 (Applied Biosystems, Waltham, Mass., USA), using GAPDH for normalisation. Reliability of GAPDH as house-keeping gene was determined using Normfinder (Anderson et al., 2004). Fold change differences between samples were determined using the comparative Ct (δδCt) method. The expression level of different targets, relative to GAPDH (δCt) and relative to the calibrator, was given by 2^−δδCt.

In general, EC50 refers to the concentration at which the effect is half-maximal. `CC(=O)Nc1ccc(O)cc1` [APAP, Acetaminophen]: the EC50 was determined as 11.6 mM in the data set on 3D HepaRG mono-culture (144 h, Day 6/7, current study) and 11.6 ± 2.15 mM in the data set on 3D HepaRG mono-culture (504 h, Day 21/22, current study). Moreover, the “toxic effect on the HSC” value in the data set with 3D HSC mono-culture is reported as “only observed at the highest concentrations”. In data set [1] (acute and chronic exposure, doses equal or higher than 300 mg/kg weight), the “activation marker gene expression in isolated HSC” value is “significantly increase of the activation marker gene expression”. In addition, the “fibrosis profile at the protein level (collagen)” value in data set [1] (chronic exposure (4 weeks)) was “deposition of collagen around the portal area with septa formation”. Also, the entries for the “concentration of peak HSC activation” value with 3D HepaRG/HSC co-culture (repeated exposure) and in the data set with 3D HepaRG/HSC co-culture (single exposure) were 5 to 10 mM and 20 to 40 mM, respectively. For the same molecule, the “HSC activation (up-regulation of activation markers, mRNA)” value in the data set on 3D HepaRG/HSC co-culture (repeated exposure) is “toxicity and HSC activation both in single and repeated-exposure”; in the data set on 3D HepaRG/HSC co-culture (single exposure 24 h) it was “toxicity and HSC activation both in single and repeated-exposure”. For the same molecule, the “recovery of HSC 3 days after compound washout” value in the data set on 3D HepaRG/HSC co-culture (single exposure) is “observed”.
